Data: US6943192B2, “Treatment regimen for administration of phenylacetylglutamine, phenylacetylisoglutamine, and/or phenylacetate” (priority 1998, dated 2005)

What was measured:
[1] = peak plasma level after oral administration to rats; format: in vivo; details: orally administered to rats
Experimental: First, Burzynski et al. (Drugs Exptl. Clin. Res. 12 Suppl. 1, 11-16 (1986)) reported complete colony reduction of HBL-100 and Ki No. 1 tumor cell lines with 5.0 mg/mL of either phenylacetic acid or antineoplaston AS2-1. […] Under typical administration regimes of antineoplaston AS2-1, the peak plasma levels of phenylacetic acid are approximately […], roughly […] less than the cytostatic concentration observed in tissue culture experiments.

[2] = test system: human breast cancer cell line MDA-MB-231; details: cited from earlier work
KMCH-1 = details: cited from earlier work
KYN-1 = details: cited from earlier work
KIM-1 = details: cited from earlier work
rat Nb2 lymphoma = details: cited from earlier work
[3] = test system: human colon adenocarcinoma; details: cited from earlier work
S180 cells = details: mice implanted with S180 cells; cited from earlier work
cancer = details: clinical trials; cited from earlier work
[4] = cited from earlier work
[5] = orally administered to rats; cited from earlier work
[6] = cited from earlier work; remark: listed apart in the source
[7] = test system: breast carcinoma cell line HBL-100; details: cited from earlier work
Ki-1 = details: cited from earlier work
[8] = test system: human promyelocytic leukemia HL-60; details: cited from earlier work
[9] = test system: chronic lymphocytic leukemia; details: cited from earlier work
neuroblastoma = details: cited from earlier work
murine fibrosarcoma V7T = details: cited from earlier work
[10] = test system: hormonally refractory prostate adenocarcinoma PC3; details: cited from earlier work
astrocytoma = details: cited from earlier work
medulloblastoma = details: cited from earlier work
malignant melanoma = details: cited from earlier work
ovarian carcinoma = details: cited from earlier work
[11] = test system: premalignant mesenchymal C3H 10T1/2 cells; details: cited from earlier work
[12] = test system: K562 erythroleukemia cells; details: cited from earlier work

For `O=C1CCC(NC(=O)Cc2ccccc2)C(=O)N1` (centres unmarked) [3-phenylacetylamino-2,6-piperidinedione], the “peak plasma level, fold less than the cytostatic concentration in tissue culture” value [1] is listed as “roughly 10 fold”, the “concentration at which cytostasis was observed” value ([2]; MDA-MB-231) is listed as 2.0 mg/mL and the “effect on cultured MDA-MB-231” value [2] is listed as “cytostatic effect”. The “inhibition of the growth curve” value (KMCH-1) was “Dose-dependent inhibition”, the “inhibition of the growth curve” value (KYN-1) was “Dose-dependent inhibition” and the “inhibition of the growth curve” value (KIM-1) was “Dose-dependent inhibition”. For the same molecule, the “inhibition of the growth curve” value (rat Nb2 lymphoma) was “Dose-dependent inhibition”, the “inhibition of the growth curve” value [3] was “Dose-dependent inhibition” and the “cAMP levels in the livers and tumors of treated mice relative to control mice” value (S180 cells) was “significantly elevated”. The “efficacy in treating cancer” value (cancer) was “effective in treating cancer”, the solubility in water [4] was “poorly soluble in water” and the peak plasma level [5] was “approximately 0.2 mg/mL”. For the same molecule, the clearance in vivo [6] was “rapidly cleared in vivo”.
In the case of `O=C(O)Cc1ccccc1` [phenylacetic acid], the “concentration giving complete colony reduction” value [7] is given as 5.0 mg/mL, the growth inhibition [7] is given as “dose-dependent growth inhibition” and the “concentration giving complete colony reduction” value (Ki-1; Ki No. 1) is given as 5.0 mg/mL. The growth inhibition (Ki-1; Ki-1) was “dose-dependent growth inhibition”, the “terminal differentiation or phenotypic reversion” value [8] was “promoted terminal differentiation or phenotypic reversion” and the “terminal differentiation or phenotypic reversion” value [9] was “promoted terminal differentiation or phenotypic reversion”. For the same molecule, the “terminal differentiation or phenotypic reversion” value (neuroblastoma) was “promoted terminal differentiation or phenotypic reversion”, the “terminal differentiation or phenotypic reversion” value (murine fibrosarcoma V7T) was “promoted terminal differentiation or phenotypic reversion” and the “terminal differentiation or phenotypic reversion” value [10] was “promoted terminal differentiation or phenotypic reversion”. The “terminal differentiation or phenotypic reversion” value (astrocytoma) was “promoted terminal differentiation or phenotypic reversion”, the “terminal differentiation or phenotypic reversion” value (medulloblastoma) was “promoted terminal differentiation or phenotypic reversion” and the “terminal differentiation or phenotypic reversion” value (malignant melanoma) was “promoted terminal differentiation or phenotypic reversion”. For the same molecule, the “terminal differentiation or phenotypic reversion” value (ovarian carcinoma) was “promoted terminal differentiation or phenotypic reversion”, the adipocyte conversion [11] was “caused adipocyte conversion” and the “tumor progression in premalignant cells” value ([11]; in distinction to 5-aza-2-deoxycitidine) was “did not cause tumor progression”. For the same molecule, the hemoglobin production [12] was “enhanced hemoglobin production”.
